Reference: the supplement of paper PMC4932681

How the values were obtained:
BT-474 Tam1 [1] = experiment: drug sensitivity score (DSS) (DSS (dimensionless)); higher = more sensitive; extreme values may be limits of the assay; settings: 4-OH-tamoxifen in medium 1 µM; 72 h
In short: (§1)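 CellTiter-Glo viability was the readout, taken on a PHERAstar and normalised to vehicle-only and positive controls. It was measured after breast cancer cell lines and their resistant derivatives spent 72 h at 37 °C in 384-well plates containing library drugs at five concentrations spanning a 10 000-fold range, with 1 μM of the selecting drug in the medium of resistant lines. From logistic dose–response fits in the Breeze pipeline came drug sensitivity score, relative IC50 (curve midpoint) and top-dose inhibition.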

BT-474 Tam2 [2] = experiment: as above; settings: 4-OH-tamoxifen in medium 1 µM; 72 h
In short: as §1

BT-474 [3] = experiment: as above; settings: 72 h
In short: as §1

MCF-7 Tam1 [4] = experiment: as above; settings: 4-OH-tamoxifen in medium 1 µM; 72 h
In short: as §1

MCF-7 [5] = experiment: as above; settings: 72 h
In short: as §1

T-47D Tam1 [6] = experiment: as above; settings: 4-OH-tamoxifen in medium 1 µM; 72 h
In short: as §1

T-47D Tam2 [7] = experiment: as above; settings: 4-OH-tamoxifen in medium 1 µM; 72 h
In short: as §1

T-47D [8] = experiment: as above; settings: 72 h
In short: as §1

ZR-75-1 Tam1 [9] = experiment: as above; settings: 4-OH-tamoxifen in medium 1 µM; 72 h
In short: as §1

ZR-75-1 Tam2 [10] = experiment: as above; settings: 4-OH-tamoxifen in medium 1 µM; 72 h
In short: as §1

ZR-75-1 [11] = experiment: as above; settings: 72 h
In short: as §1

BT-474 Tam1 [12] = experiment: relative IC50 (midpoint of fitted logistic curve, plateau may be below 50% inhibition; CellTiter-Glo viability); higher = less potent; settings: 4-OH-tamoxifen in medium 1 µM; 72 h
In short: as §1

BT-474 Tam2 [13] = experiment: as above; settings: 4-OH-tamoxifen in medium 1 µM; 72 h
In short: as §1

BT-474 [14] = experiment: as above; settings: 72 h
In short: as §1

MCF-7 Tam1 [15] = experiment: as above; settings: 4-OH-tamoxifen in medium 1 µM; 72 h
In short: as §1

MCF-7 [16] = experiment: as above; settings: 72 h
In short: as §1

T-47D Tam1 [17] = experiment: as above; settings: 4-OH-tamoxifen in medium 1 µM; 72 h
In short: as §1

T-47D Tam2 [18] = experiment: as above; settings: 4-OH-tamoxifen in medium 1 µM; 72 h
In short: as §1

T-47D [19] = experiment: as above; settings: 72 h
In short: as §1

ZR-75-1 Tam1 [20] = experiment: as above; settings: 4-OH-tamoxifen in medium 1 µM; 72 h
In short: as §1

ZR-75-1 Tam2 [21] = experiment: as above; settings: 4-OH-tamoxifen in medium 1 µM; 72 h
In short: as §1

ZR-75-1 [22] = experiment: as above; settings: 72 h
In short: as §1

| SMILES | drug sensitivity score (BT-474 Tam1 [1]) | drug sensitivity score (BT-474 Tam2 [2]) | drug sensitivity score (BT-474 [3]; 4-OH-tamoxifen in medium 0 µM) | drug sensitivity score (BT-474 [3]; 4-OH-tamoxifen in medium 1 µM) | drug sensitivity score (MCF-7 Tam1 [4]) | drug sensitivity score (MCF-7 [5]; 4-OH-tamoxifen in medium 0 µM) | drug sensitivity score (MCF-7 [5]; 4-OH-tamoxifen in medium 1 µM) | drug sensitivity score (T-47D Tam1 [6]) | drug sensitivity score (T-47D Tam2 [7]) | drug sensitivity score (T-47D [8]; 4-OH-tamoxifen in medium 0 µM) | drug sensitivity score (T-47D [8]; 4-OH-tamoxifen in medium 1 µM) | drug sensitivity score (ZR-75-1 Tam1 [9]) | drug sensitivity score (ZR-75-1 Tam2 [10]) | drug sensitivity score (ZR-75-1 [11]; 4-OH-tamoxifen in medium 0 µM) | drug sensitivity score (ZR-75-1 [11]; 4-OH-tamoxifen in medium 1 µM) | relative IC50 (BT-474 Tam1 [12]) [µM] | relative IC50 (BT-474 Tam2 [13]) [µM] | relative IC50 (BT-474 [14]; 4-OH-tamoxifen in medium 0 µM) [µM] | relative IC50 (BT-474 [14]; 4-OH-tamoxifen in medium 1 µM) [µM] | relative IC50 (MCF-7 Tam1 [15]) [µM] | relative IC50 (MCF-7 [16]; 4-OH-tamoxifen in medium 0 µM) [µM] | relative IC50 (MCF-7 [16]; 4-OH-tamoxifen in medium 1 µM) [µM] | relative IC50 (T-47D Tam1 [17]) [µM] | relative IC50 (T-47D Tam2 [18]) [µM] | relative IC50 (T-47D [19]; 4-OH-tamoxifen in medium 0 µM) [µM] | relative IC50 (T-47D [19]; 4-OH-tamoxifen in medium 1 µM) [µM] | relative IC50 (ZR-75-1 Tam1 [20]) [µM] | relative IC50 (ZR-75-1 Tam2 [21]) [µM] | relative IC50 (ZR-75-1 [22]; 4-OH-tamoxifen in medium 0 µM) [µM] | relative IC50 (ZR-75-1 [22]; 4-OH-tamoxifen in medium 1 µM) [µM] |
| --- | --- | --- | --- | --- | --- | --- | --- | --- | --- | --- | --- | --- | --- | --- | --- | --- | --- | --- | --- | --- | --- | --- | --- | --- | --- | --- | --- | --- | --- | --- |
| c1cc(CN2CCCNCCNCCCNCC2)ccc1CN1CCCNCCNCCCNCC1 [Plerixafor] | 0 | 0 | 0 | 0 | 0 | 0 | 0 | 0 | 0 | 0.403 | 0 | 0 | 0 | 0 | 0 | > 2.5 | > 2.5 | > 2.5 | > 2.5 | > 2.5 | > 2.5 | > 2.5 | > 2.5 | > 2.5 | > 2.5 | > 2.5 | > 2.5 | > 2.5 | > 2.5 | > 2.5 |
| COc1cc2c(N3CCN(C(=O)Nc4ccc(OC(C)C)cc4)CC3)ncnc2cc1OCCCN1CCCCC1 [Tandutinib] | 0 | 0 | 0 | 0 | 0 | 0 | 0 | 0 | 0 | 0 | 0 | 0 | 0 | 0 | 0 | > 1 | > 1 | > 1 | > 1 | > 1 | > 1 | > 1 | > 1 | > 1 | > 1 | > 1 | > 1 | > 1 | > 1 | > 1 |
| CN(C)/N=N/c1[nH]cnc1C(N)=O [Dacarbazine] | 0 | 0 | 0 | 0 | 0 | 0 | 0.0214 | 0 | 0 | 0 | 0 | 0 | 0 | 0 | 0 | > 10 | > 10 | > 10 | > 10 | > 10 | > 10 |  | > 10 | > 10 | > 10 | > 10 | > 10 | > 10 | > 10 | > 10 |
